Results: patent US20060111284A1, “Method for treating cancer” (priority 2002, published 2006)

Assays:
cells = assay: Chemosensitizing by redox clamping agent co-administered with anti-cancer agent (FIG. 2); assay type: cell-based
Description: The present invention further provides a method of reducing the effective dose of an anti-cancer agent necessary to be effective against cancer comprising administering a redox clamping agent in conjunction with an anti-cancer agent. It is preferred that the redox clamping agent is Mesna or DMSA. Redox clamping agents have the ability to maintain cells in a selected redox state. […] Redox clamping agents are useful in enhancing the therapeutic activity of chemotherapeutic agents such as butyrate that are dependent upon the redox state of the cell. Redox clamping agents are further useful in controlling hyperproliferation of cells and conditions associated with abnormal fluctuations in the redox state of cells. In one aspect, this invention provides a method of treating cancerous tumors comprising administering an effective dose of an anti-cancer agent in conjunction with a redox clamping agent, wherein the redox clamping agent acts as a chemoenhancer or a chemosensitizer. […] The administration of Mesna in conjunction with an anti-cancer agent may be as separate compounds or in a composition formulated and titrated to a dose and in a concentration that would achieve the optimal therapeutic dose of the anti-cancer agent providing a higher tumor cell kill with a lower dose of the anti-cancer agent than the typical therapeutic dose administered to a patient. […]

H4 Rat Hepatoma cells = assay: Hydrogen peroxide stress in H4 Rat Hepatoma cells, antioxidant levels; assay type: cell-based; conditions: 100 uM hydrogen peroxide for two hours, medium replaced, determined after 24 hours
Protocol: To further exemplify the redox clamping properties of Mesna, stress was induced in H4 Rat Hepatoma cells by treatment with 100 uM hydrogen peroxide for two hours and then the medium was removed and replaced with an anti-cancer agent. The cellular viability, as well as glutathione and metallothionein levels were determined after 24 hours in culture. […] The inhibition of stress induced upswing in antioxidant levels is characteristic of redox clamping agents.
(§1) In all of the experiments associated with the investigation of Mesna as a redox clamping agent, as a stand-alone anticancer agent as well as a chemosensitizer, the cell culture medium used was Swim's S-77 medium containing 12 uM cystine, instead of conventional levels of this amino acid (i.e., 50 uM). All other components of the medium were maintained at conventional concentrations. […] The ability of cystine to supply cells with cysteine, which then function as a precursor amino acid for glutathione synthesis, is thought to be responsible for the abnormally high basal levels of glutathione in cultured tumor cell lines.

human tumor cell lines = assay: Growth inhibition of human tumor cell lines in culture; assay type: cell-based
Description: The present invention provides a method of treating lymphoma, ovarian cancer, colorectal cancer, or gastric cancer comprising administering an effective amount of Mesna to a patient with lymphoma, ovarian cancer, colorectal cancer or gastric cancer. Mesna inhibits the growth of several human tumor cell lines in culture, and there are no strict relationships between the histopathological origin of the cell lines and the sensitivity of the cell lines to Mesna. […] It is further preferred that the patient be administered Mesna for a seven to ten day period. The doses may be cycled. The actual dose will be dependent on the size, type and location of the tumor as well as the overall status of the patient. It is preferred that high concentrations of Mesna be administered intravenously to achieve clamping initially, with further administration of oral doses to maintain the clamped state.
Cancer cell lines were growth inhibited when Mesna was administered on several consecutive days. Mesna has shown good activity in preventing the urotoxicity of oxazaphosphorine compound.
as §1

human LNCaP cells = assay: Two-step arsenic then Mesna treatment, apoptosis and glutathione in LNCaP cells; assay type: cell-based
Protocol: Human LNCaP cells, treated with 100 uM arsenic for 2 hours then washed and re-fed with normal medium, develop an elevation in cellular glutathione levels over a 24-hour period. Since exogenous antioxidants are known to be potent inhibitors of apoptotic mechanism, it is believed that internally-produced antioxidants such as glutathione function in a similar manner. […] Although Mesna increases apoptosis alone, the low concentrations of Mesna utilized in this two-step treatment protocol increased apoptosis minimally i.e., to 11 percent from a background of 3 to 5 percent in untreated cells.
as §1

[1] = test system: metastatic and/or relapsed tumors refractory to conventional therapy; assay: Clinical study of oral Mesna as single agent in refractory cancer patients; assay type: in vivo, human
Protocol: From December 1996 to March 1998 a study was performed on 14 ambulatory patients with metastatic and/or relapsed tumors refractory to conventional therapy. Eligibility criteria included histologically-confirmed advanced cancer, patients age was greater than 18 years, with a life expectancy no less than two months. The patients had not undergone major surgery within 2 weeks, or radiotherapy and/or chemotherapy within one month of the study. […] Exclusion criteria included active uncontrolled infection, pregnancy, lactation and any other co-existing medical problems severe enough to prevent full compliance with the study. Objectively measurable disease in the patients was required. All patients gave informed written consent before treatment. 600 mg/m^2 of Mesna was given by oral route four times a day, masked in orange juice for 10 consecutive days. Cycles were repeated every 15 days. No simultaneous chemotherapy and or radiotherapy and no other supportive care was given. The main objective of the study was to determine the anti-tumoral activity and toxicity of Mesna for heavily and or refractory pretreated cancer patients. […] The patients were all previously treated with between two and four different chemotherapy regimens. Mesna was administered as a single agent to all of the patients in the study. The toxic effects of Mesna and number of nodes were assessed during the first cycle of Mesna administration. […] For colorectal cancer a greater than 50% reduction of nodular lesions metastasized to liver was registered, during the second schedule of therapy. For gastric cancer a greater than 50% reduction of a subcutaneous nodule was measured during the second course of Mesna treatment.

[2] = within a few minutes after administration; cited from earlier work
[3] = even in very high dose, 1000 mg/kg; cited from earlier work
[4] = 100 uM arsenic 2 hours, washed, then medium containing 100 uM Mesna

## CCCC(=O)O [Butyrate]
cells; butyrate alone
  concentration of butyrate that induces apoptosis: greater than 3 mM
cells; in the presence of a redox clamping agent
  concentration of butyrate giving an effective kill: ≥ 0.5 mM

## O=C(O)[C@@H](S)[C@@H](S)C(=O)O [DMSA]
H4 Rat Hepatoma cells
  stress-induced upswings in antioxidant levels (glutathione, metallothionein): oppose stress-induced upswings in antioxidant levels

## O=S(=O)([O-])CCSSCCS(=O)(=O)[O-].[Na+].[Na+] [Dimesna, Disodium-2,2′-dithiobisethane sulfonate]
Human tumor cell lines
  interference with the growth inhibitory activity of Mesna: did not interfere

## [AsH3] [arsenic]
Human LNCaP cells; 100 uM arsenic for 2 hours, washed, re-fed with normal medium
  apoptosis of the cells: 28%

## O=S(=O)([O-])CCS.[Na+] [Mesna, Sodium-2-mercaptoethane sulphonate]
[1]; 600 mg/m^2 oral four times a day, 10 days, second course
  reduction of a subcutaneous nodule, gastric cancer: greater than 50%
[1]; 600 mg/m^2 oral four times a day, 10 days, second schedule of therapy
  reduction of nodular lesions metastasized to liver, colorectal cancer: greater than 50%
[1]; lung cancer, soft tissue sarcoma, skin metastases of unknown origin, bladder cancer, melanoma, cancer of the cervix
  objective response: No objective responses
[1]; two patients, 600 mg/m^2 oral four times a day, 10 days, second and third course
  clinical response, ovarian cancer: reduced ascites and pain
Human LNCaP cells; [4]
  elevation in glutathione levels: dramatically diminished
  fraction of apoptotic cells compared to arsenic alone: increased more than two-fold
Human LNCaP cells; Mesna alone at the low concentration of the two-step protocol, background 3 to 5 percent in untreated cells
  apoptosis: 11%
[2]
  fraction of administered dose transformed into Mesna disulphide: more than 90%
Human tumor cell lines
  incorporation of 3H-thymidine, proline and uridine: inhibited
Human tumor cell lines; lymphoma, ovarian, colorectal, gastric cancer lines, administered on several consecutive days
  growth of human tumor cell lines in culture: inhibits growth
H4 Rat Hepatoma cells
  stress-induced upswings in antioxidant levels (glutathione, metallothionein): oppose stress-induced upswings in antioxidant levels
[3]
  pharmacological and toxicological character: relatively inert
